What was measured:
[1] = target: T1, Ba/F3-Syk cells (Homo sapiens, UniProt P43405); experiment: Ba/F3 Proliferation Assay, Ba/F3-Syk cells (Resazurin); format: cell-based; conditions: 48-hour incubation
T1 construct: fused on or other part: Possible but unprinted fusion partner: TEL (ETV6), the usual partner for Ba/F3 lines transformed by Syk; Nothing on a partner is printed
Protocol: (§1) Ba/F3-Syk and Ba/F3-WT (wild type) cells were maintained at ≤1×10^6 cell/mL in RPMI (Life Technologies) with 10% FBS at 37° C. and 5% CO2 for a maximum of four weeks. Ba/F3-WT additionally contained 2 ng/mL mIL-3 (R&D Systems) to induce cellular growth. Cells were counted and dispensed at 5000 cells/well using a Multidrop Liquid Dispenser in a volume of 45 μL into black 384-well TC treated plates (Greiner) and incubated for four hours in complete media (+mIL-3 for Ba/F3-WT). Compounds were serially diluted in 100% DMSO, prior to an intermediate dilution in RPMI media. 5 μL of compound (0.4% final DMSO) was added to the cells, followed by a 48-hour incubation period. 5 μL of Resazurin (60 μM final) was then added and cells were incubated at 37° C. for three hours, before fluorescence (λex530/λem585) was measured using an Ensight Multimode Plate Reader (Perkin Elmer).

[2] = test system: Ba/F3-WT (wild type) cells; experiment: Ba/F3 Proliferation Assay, Ba/F3-WT (wild type) cells with mIL-3 (Resazurin); format: cell-based; conditions: Mus musculus, BaF3, 48 h, Ba/F3-WT cells +mIL-3, 48-hour incubation
Protocol: as §1

| SMILES | EC50 [1] [nM] | EC50 [2] [nM] |
| --- | --- | --- |
| Cc1cc(-c2cc3ncccc3c(OC[C@@H]3CNCCO3)n2)c(C)n1C [Compound 2.40, 5-{[(2S)-morpholin-2-yl]methoxy}-7-(1,2,5-trimethyl-1H-pyrrol-3-yl)-1,6-naphthyridine] | 645 | > 10000 |
| Cn1cc(-c2cc3ncccc3c(OCC3CNCCCO3)n2)cn1 (centres unmarked) [Compound 2.41, 7-(1-methyl-1H-pyrazol-4-yl)-5-[(1,4-oxazepan-2-yl)methoxy]-1,6-naphthyridine] | 127 | 2320 |
| CC(C)(C)n1cc(-c2cc3ncccc3c(OCC3CNCCCO3)n2)cn1 (centres unmarked) [Compound 2.47, 7-(1-tert-butyl-1H-pyrazol-4-yl)-5-[(1,4-oxazepan-2-yl)methoxy]-1,6-naphthyridine] | 48 | 3270 |
| Cn1ccc(-c2cc3ncccc3c(OCC3CNCCCO3)n2)c1 (centres unmarked) [Compound 2.48, 7-(1-methyl-1H-pyrrol-3-yl)-5-[(1,4-oxazepan-2-yl)methoxy]-1,6-naphthyridine] | 119 | 4060 |
| Cn1cc(-c2cc3ncccc3c(OC[C@@H]3CNCCCO3)n2)cn1 [Compound 2.50, 7-(1-methyl-1H-pyrazol-4-yl)-5-{[(2S)-1,4-oxazepan-2-yl]methoxy}-1,6-naphthyridine] | 151 | 6180 |
| CC(C)n1cc(-c2cc3ncccc3c(OC[C@@H]3CNCC4(CCC4)O3)n2)cn1 [Compound 2.56, 5-{[(6S)-5-oxa-8-azaspiro[3.5]nonan-6-yl]methoxy}-7-[1-(propan-2-yl)-1H-pyrazol-4-yl]-1,6-naphthyridine] | 32.9 | 1460 |
| CC(C)(C)n1cc(-c2cc3ncccc3c(OC[C@H]3CNCCCO3)n2)cn1 [Compound 2.59, 7-(1-tert-butyl-1H-pyrazol-4-yl)-5-{[(2R)-1,4-oxazepan-2-yl]methoxy}-1,6-naphthyridine] | 58.9 | 985 |
| CC(C)(C)n1ccc(-c2cc3ncccc3c(OC[C@@H]3CNCC4(CC4)O3)n2)c1 [Compound 2.61, 7-(1-tert-butyl-1H-pyrrol-3-yl)-5-{[(5S)-4-oxa-7-azaspiro[2.5]octan-5-yl]methoxy}-1,6-naphthyridine] | 9.7 | 2610 |
| CC(C)n1cc(-c2cc3ncccc3c(OC[C@@H]3CNCC4(CC4)O3)n2)cn1 [Compound 2.62, 5-{[(5S)-4-oxa-7-azaspiro[2.5]octan-5-yl]methoxy}-7-[1-(propan-2-yl)-1H-pyrazol-4-yl]-1,6-naphthyridine] | 31.4 | 1290 |
| C[C@H](Oc1nc(-c2ccn(C)c2)cc2ncccc12)[C@@H]1CNCC(C)(C)O1 [Compound 2.64, 5-[(1S)-1-[(2S)-6,6-dimethylmorpholin-2-yl]ethoxy]-7-(1-methyl-1H-pyrrol-3-yl)-1,6-naphthyridine] | 253 | > 10000 |
| C[C@@H](Oc1nc(-c2ccn(C)c2)cc2ncccc12)[C@@H]1CNCC(C)(C)O1 [Compound 2.65, 5-[(1R)-1-[(2S)-6,6-dimethylmorpholin-2-yl]ethoxy]-7-(1-methyl-1H-pyrrol-3-yl)-1,6-naphthyridine] | 11.7 | 2540 |

Second part, the molecule after the results:

| EC50 [1] [nM] | EC50 [2] [nM] | SMILES |
| --- | --- | --- |
| 13.9 | 4370 | C[C@@H](Oc1nc(-c2ccn(C(C)(C)C)c2)cc2ncccc12)[C@@H]1CNCCO1 [Compound 2.68, 7-(1-tert-butyl-1H-pyrrol-3-yl)-5-[(1R)-1-[(2S)-morpholin-2-yl]ethoxy]-1,6-naphthyridine] |
| 19.1 | 1540 | CC(C)n1cc(-c2cc3ncccc3c(OC[C@@H]3CNCCCO3)n2)cn1 [Compound 2.70, 5-{[(2S)-1,4-oxazepan-2-yl]methoxy}-7-[1-(propan-2-yl)-1H-pyrazol-4-yl]-1,6-naphthyridine] |
| 266 | 1900 | Cn1cc(-c2cc3ncccc3c(OC[C@H]3CN[C@@H]4CCC[C@@H]4O3)n2)cn1 [Compound 2.72, 5-{[(2R,4aR,7aS)-octahydrocyclopenta[b][1,4]oxazin-2-yl]methoxy}-7-(1-methyl-1H-pyrazol-4-yl)-1,6-naphthyridine] |
| 32.2 | 3380 | Cn1cc(-c2cc3ncccc3c(OC[C@@H]3CN[C@H]4CCC[C@H]4O3)n2)cn1 [Compound 2.73, 5-{[(2S,4aS,7aR)-octahydrocyclopenta[b][1,4]oxazin-2-yl]methoxy}-7-(1-methyl-1H-pyrazol-4-yl)-1,6-naphthyridine] |
| 109 | 2880 | C[C@H]1CNC[C@@H](COc2nc(-c3cnn(C)c3)cc3ncccc23)O1 [Compound 2.74, 7-(1-methyl-1H-pyrazol-4-yl)-5-{[(25,6S)-6-methylmorpholin-2-yl]methoxy}-1,6-naphthyridine] |
| 67.8 | 3920 | C[C@H]1CNC[C@@H](COc2nc(-c3ccn(C)c3)cc3ncccc23)O1 [Compound 2.75, 7-(1-methyl-1H-pyrrol-3-yl)-5-{[(2,6S)-6-methylmorpholin-2-yl]methoxy}-1,6-naphthyridine] |
| 42.7 | 5320 | C[C@@H]1CNC[C@@H](COc2nc(-c3ccn(C)c3)cc3ncccc23)O1 [Compound 2.77, 7-(1-methyl-1H-pyrrol-3-yl)-5-{[(2S,6R)-6-methylmorpholin-2-yl]methoxy}-1,6-naphthyridine] |
| 147 | 4850 | O=C1CCn2cc(-c3cc4ncccc4c(OC[C@@H]4CNCCO4)n3)cc21 [Compound 2.78, 6-(5-{[(2S)-morpholin-2-yl]methoxy}-1,6-naphthyridin-7-yl)-2,3-dihydro-1H-pyrrolizin-1-one] |
| 596 | > 10000 | Cn1ccc(-c2cc3ncccc3c(OC[C@@H]3CNC(C)(C)CCO3)n2)c1 [Compound 2.79, 5-{[(2S)-5,5-dimethyl-1,4-oxazepan-2-yl]methoxy}-7-(1-methyl-1H-pyrrol-3-yl)-1,6-naphthyridine] |
| 127 | 2270 | CC1(C)CNC[C@H](COc2nc(-c3cnn(C(C)(C)C)c3)cc3ncccc23)O1 [Compound 2.82, 7-(1-tert-butyl-1H-pyrazol-4-yl)-5-{[(2R)-6,6-dimethylmorpholin-2-yl]methoxy}-1,6-naphthyridine] |
| 34.2 | 1650 | C[C@@H](Oc1nc(-c2cnn(C)c2)cc2ncccc12)[C@@H]1CNCC(C)(C)O1 [Compound 2.83, 5-[(1R)-1-[(2S)-6,6-dimethylmorpholin-2-yl]ethoxy]-7-(1-methyl-1H-pyrazol-4-yl)-1,6-naphthyridine] |
| 22.3 | 2210 | CC(C)n1cc(-c2cc3ncccc3c(O[C@H](C)[C@@H]3CNCC(C)(C)O3)n2)cn1 [Compound 2.84, 5-[(1R)-1-[(2S)-6,6-dimethylmorpholin-2-yl]ethoxy]-7-[1-(propan-2-yl)-1H-pyrazol-4-yl]-1,6-naphthyridine] |
| 2160 | > 10000 | CC(C)(C)n1cc(-c2cc3ncccc3c(OC[C@@H]3CNCC(F)(F)CO3)n2)cn1 [Compound 2.86, 7-(1-tert-butyl-1H-pyrazol-4-yl)-5-{[(2S)-6,6-difluoro-1,4-oxazepan-2-yl]methoxy}-1,6-naphthyridine] |
| 11.2 | 1100 | CC1(C)CNC[C@@H](COc2nc(-c3cnn(C4(C)CCC4)c3)cc3ncccc23)O1 [Compound 2.87, 5-{[(2S)-6,6-dimethylmorpholin-2-yl]methoxy}-7-[1-(1-methylcyclobutyl)-1H-pyrazol-4-yl]-1,6-naphthyridine] |
